Read-outs that look alike come from different tables or passages of the source.
Tests used:
ovine COX-2 = biological target: T1, ovine COX-2 (Ovis aries, UniProt P79208); experiment: COX-2 enzyme activity, colorimetric inhibitor screening kit; format: biochemical; conditions: for inhibition at 3000 µM: read-out: COX-2-% Inhibition, 3 mM (Table 8)
T1 construct: purchased Cayman Chemicals (Ann Arbor, Mich.)
T1 sequence (P79208 17-603): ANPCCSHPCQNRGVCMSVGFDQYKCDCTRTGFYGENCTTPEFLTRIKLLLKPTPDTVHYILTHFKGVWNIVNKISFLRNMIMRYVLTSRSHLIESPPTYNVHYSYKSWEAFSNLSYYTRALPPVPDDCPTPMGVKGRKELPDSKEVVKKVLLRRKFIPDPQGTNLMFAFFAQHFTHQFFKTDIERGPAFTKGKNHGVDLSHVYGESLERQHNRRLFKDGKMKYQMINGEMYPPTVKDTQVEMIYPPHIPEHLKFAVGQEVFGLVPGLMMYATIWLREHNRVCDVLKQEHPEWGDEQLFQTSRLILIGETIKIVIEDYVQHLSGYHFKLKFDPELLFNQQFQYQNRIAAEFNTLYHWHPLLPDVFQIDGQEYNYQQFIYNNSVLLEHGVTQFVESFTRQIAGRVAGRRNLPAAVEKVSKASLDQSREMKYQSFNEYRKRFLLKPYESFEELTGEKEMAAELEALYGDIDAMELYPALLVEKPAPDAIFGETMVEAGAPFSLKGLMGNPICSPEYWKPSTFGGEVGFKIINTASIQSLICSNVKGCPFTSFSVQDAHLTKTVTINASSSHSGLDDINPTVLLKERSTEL

[1] = test system: SK-BR-3 human breast cancer; experiment: MTT cell growth inhibition, SKBR3; format: cell-based; conditions: for IC50: Homo sapiens, SK-BR-3; for Ratio NSAID/NOSH-NSAID, SKBR3: fold-enhancement in potency over the parent compound
Procedure: All cells lines were grown as monolayers except for the Jurkats which were grown in suspension. […] All media were supplemented with 10% fetal calf serum (Invitrogen, Carlsbad, Calif.) penicillin (50 U/ml), and streptomycin (50 μg/ml) (Invitrogen, Carlsbad, Calif.). Cells were seeded on culture dishes at a density of 25×10^3 cells/cm^2 and incubated at 37° C. in 5% CO2 and 90% relative humidity. Single cell suspensions were obtained by trypsinization (0.05% trypsin/EDTA), and cells were counted using a hemocytometer. Viability was determined by the trypan blue dye exclusion method.
Cell growth inhibitory effect of NOSH compounds were measured using a colorimetric MTT assay kit (Roche, Indianapolis, Ind.). Cancer cells were plated in 96-well plates at a density of 50,000 cells/well. The cells were incubated for 24 h with different concentrations of NOSH compounds. After the indicated time, 10 μl of MTT dye (3-[4,5-dimethylthiazol-2-yl]-2,5-diphenyl tetrazolium bromide, 5 mg/ml in phosphate buffered saline), was added to each well, and the plates were incubated for 2 hours at 37° C. Then, the media was aspirated, and add 100 μl of the solubilization solution (10% SDS in 0.01 M HCl) was added to each well to solubilize the formant crystals. The absorbance of the plates was measured on an ELISA reader at a wavelength of 570 nm. Each sample was performed in triplicate, and the entire experiment was repeated three times.
All media were supplemented with 10% fetal calf serum (Invitrogen, Carlsbad, Calif.) penicillin (50 U/ml), and streptomycin (50 μg/ml) (Invitrogen, Carlsbad, Calif.). Cells were seeded on culture dishes at a density of 25×10^3 cells/cm^2 and incubated at 37° C. in 5% CO2 and 90% relative humidity. Single cell suspensions were obtained by trypsinization (0.05% trypsin/EDTA), and cells were counted using a hemacytometer. The final DMSO concentration was adjusted in all media to 1%. Viability was determined by the trypan blue dye exclusion method.
Cell growth inhibitory effect of all NOSH-NSAIDs was measured using a colorimetric MTT assay kit (Roche, Indianapolis, Ind.). Cancer cells were plated in 96-well plates at a density of 30,000-50,000 cells/well depending on cell type. The cells were incubated for 24 hours with different concentrations of NOSH-NSAIDs. After the indicated time, 10 μL of MTT dye (3-[4,5-dimethylthiazol-2-yl]-2,5-diphenyl tetrazolium bromide, 5 mg/mL in phosphate buffered saline), was added to each well, and the plates were incubated for 2 hours at 37° C. Then, the media was aspirated, and 100 μL of the solubilization solution (10% SDS in 0.01 M HCl) was added to each well to solubilize the formant crystals. The absorbance of the plates was measured on a spectrophotometric plate reader at a wavelength of 570 nm. Each experiment was performed in triplicate, and the entire experiment was repeated three times.

CC(=O)Oc1ccccc1C(=O)O [ASA, aspirin, reference compound]
COX-2-% Inhibition (ovine COX-2; 1 mM, 15 min at 4° C. (Table 8)): 70.2% | inhibition at 1000 µM (ovine COX-2; read-out: COX-2 % Inhibition, 1 mM (Table 6)): 50.6 ± 1.1% | inhibition at 1000 µM (ovine COX-2; read-out: COX-2-% Inhibition, 1 mM, 15 min at 4° C. (Table 8)): 68.4% | inhibition at 3000 µM (ovine COX-2): 74.6%

O=C(CCCO[N+](=O)[O-])Oc1ccccc1C(=O)Oc1ccc(-c2cc(=S)ss2)cc1 [NOSH-1, 4-(3-thioxo-3H-1,2-dithiol-5-yl)phenyl 2-((4-(nitrooxy)butanoyl)oxy)benzoate]
IC50 ([1]; 24 hours): 75 ± 5 nM | inhibition at 0.025 µM (ovine COX-2; 25 nM (Table 6)): 5.4 ± 0.7% | inhibition at 0.05 µM (ovine COX-2; 50 nM (Table 6)): 14.5 ± 1% | inhibition at 0.05 µM (ovine COX-2; 50 nM (Table 8)): 23.3% | COX-2-% Inhibition (ovine COX-2; 50 nM (Table 8), listed as NOSH-ASA, 0.05 µM): 20.9% | inhibition at 0.1 µM (ovine COX-2; 100 nM (Table 6)): 27.2 ± 0.7% | inhibition at 0.1 µM (ovine COX-2; 100 nM (Table 8)): 29.1%

O=C(CCC(=O)Oc1ccccc1C(=O)Oc1ccc(-c2cc(=S)ss2)cc1)OCCCCO[N+](=O)[O-] [NOSH-2, 4-(nitrooxy)butyl (2-((4-(3-thioxo-3H-1,2-dithiol-5-yl)phenoxy)carbonyl)phenyl) succinate]
IC50 ([1]; 24 hours): 88 ± 7 nM

NC(=S)c1ccc(OC(=O)c2ccccc2OC(=O)CCCO[N+](=O)[O-])cc1 [NOSH-3, 4-carbamothioylphenyl 2-((4-(nitrooxy)butanoyl)-oxy)benzoate]
IC50 ([1]; 24 hours): 6500 ± 268 nM

O=C(CCCC[C@@H]1CCSS1)Oc1ccccc1C(=O)OCCCCO[N+](=O)[O-] [NOSH-4, (R)-4-(nitrooxy)butyl 2-((5-(1,2-dithiolan-3-yl)pentanoyl)oxy)benzoate]
IC50 ([1]; 24 hours): 550 ± 28 nM

CC(C(=O)Oc1ccc(-c2cc(=S)ss2)cc1)c1ccc2cc(OC(=O)CCCO[N+](=O)[O-])ccc2c1 (stereo not drawn) [NOSH-7, 6-(1-oxo-1-(4-(3-thioxo-3H-1,2-dithiol-5-yl)phenoxy)propan-2-yl)naphthalen-2-yl 4-(nitrooxy)butanoate]
IC50 ([1]; 24 hours (Table 7)): 100 nM | Ratio NSAID/NOSH-NSAID, SKBR3 [1]: 28,900 | inhibition at 0.08 µM (ovine COX-2; 80 nM (Table 8)): 18.8% | COX-2-% Inhibition (ovine COX-2; 80 nM (Table 8), listed as NOSH-NAPROXEN, 0.08 µM): 15.8% | inhibition at 0.16 µM (ovine COX-2; 160 nM (Table 8)): 11%

CC1=C(CC(=O)Oc2ccc(OC(=O)CCCO[N+](=O)[O-])c(C(=O)Oc3ccc(-c4cc(=S)ss4)cc3)c2)c2cc(F)ccc2/C1=C/c1ccc([S+](C)[O-])cc1 (stereo not drawn) [NOSH-8, (E)-4-(3-thioxo-3H-1,2-dithiol-5-yl)phenyl 5-(2-(5-fluoro-2-methyl-1-(4-(methylsulfinyl)benzylidene)-1H-inden-3-yl)acetoxy)-2-((4-(nitrooxy)butanoyl)oxy)benzoate]
IC50 ([1]; 24 hours (Table 7)): 120 nM | Ratio NSAID/NOSH-NSAID, SKBR3 [1]: 7,041 | inhibition at 0.089 µM (ovine COX-2; 89 nM (Table 8)): 13.6% | COX-2-% Inhibition (ovine COX-2; 89 nM (Table 8), listed as NOSH-SULINDAC, 0.089 µM): 12.3%

COc1ccc2cc([C@H](C)C(=O)O)ccc2c1 [naproxen, reference compound]
COX-2-% Inhibition (ovine COX-2; 3 mM (Table 8)): 70.2% | inhibition at 3000 µM (ovine COX-2): 68.6% | inhibition at 6000 µM (ovine COX-2; read-out: COX-2-% Inhibition, 6 mM (Table 8)): 74.6%

CC1=C(CC(=O)O)c2cc(F)ccc2/C1=C\c1ccc([S+](C)[O-])cc1 (stereo not drawn) [sulindac, reference compound]
IC50 ([1]; 24 hours (Table 7)): 845000 nM | inhibition at 800 µM (ovine COX-2; 800 μM (Table 8)): 66.8% | COX-2-% Inhibition (ovine COX-2; 800 μM (Table 8), 800 µM): 68.5% | inhibition at 1600 µM (ovine COX-2; 1600 μM (Table 8)): 71.1%

From patent publication US10450260B2, “NO- and H2S-releasing compounds” (RESEARCH FOUNDATION OF THE CITY UNIVERSITY OF NEW YORK, priority 2011, dated 2019)
